Tested on: cellular retinoic acid binding protein II (CRABP II)
Test: Clinical trial: CRABP II in human epidermis after topical retinol with or without microneedle treatment (Western blotting)
Assay type: in vivo
Conditions: once a day for four days
Excerpt: Ten subjects between the ages of 25 and 50 were recruited into a clinical trial to test the efficacy of microneedles 58 after having given informed consent to a protocol approved by an internal review board. Needles 58 that are acupuncture needles (Seirin, 0.12 mm×30 mm) were fixed in narrow diameter plastic tubes, i.e., positioning collars 60, with adhesive so that needle tips protruded approximately 250 microns beyond the end of positioning collar 60. This arrangement prevented excessive penetration during use. The protocol provided for the application on the skin of the lower back of a vehicle alone or vehicle containing either 0.05% or 0.1% retinol. In vehicle alone sites and 0.05% retinol sites microneedles 58 were applied at a density of 100 strikes per square centimeter. Adhesive rings with an internal area of 1.5 square centimeters were used to define the treatment areas. Microneedle device 10 was held in the operator's hand and lightly impacted on the subject's skin. Aliquots of twenty microliters of treatment solution were applied to the relevant sites immediately after microneedling. Sites were treated once a day for four days. On the fifth day epidermal samples were taken with an abrasive probe and placed in extraction buffer (see above). Samples were analysed with polyacrylamide gel electrophoresis and Western blotting for the presence of cellular retinoic acid binding protein II (CRABP II), a protein considered to be a marker for retinoid activity in skin.

Structure (SMILES): CC1=C(/C=C/C(C)=C/C=C/C(C)=C/CO)C(C)(C)CCC1 [retinol]
- CRABP II expression in epidermis, microneedle + 0.05% retinol versus 0.05% retinol alone (microneedles 100 strikes per square centimeter + 0.05% retinol, P<0.05): increased CRABP II expression above that seen with 0.05% retinol alone
- CRABP II expression elevation, microneedles + 0.05% retinol versus 0.1% retinol alone (microneedles 100 strikes per square centimeter + 0.05% retinol, statistically significant): greater than that associated with the 0.1% retinol alone treatment
- CRABP II expression in epidermis (vehicle alone, 0.05% or 0.1% retinol on skin of lower back, sampled on fifth day): dose-dependent increase in CRABP II
